The values that follow come from PMC4674796, “Only a minority of broad-range detoxification genes respond to a variety of phytotoxins in generalist Bemisia tabaci species” (Scientific Reports, 2015).

In assay [1] the target is T1, BtGST2 (Bemisia tabaci, UniProt A0A9P0F9D9).
T1 construct: gene BEMITA_LOCUS12014
T1 sequence (A0A9P0F9D9 1-204): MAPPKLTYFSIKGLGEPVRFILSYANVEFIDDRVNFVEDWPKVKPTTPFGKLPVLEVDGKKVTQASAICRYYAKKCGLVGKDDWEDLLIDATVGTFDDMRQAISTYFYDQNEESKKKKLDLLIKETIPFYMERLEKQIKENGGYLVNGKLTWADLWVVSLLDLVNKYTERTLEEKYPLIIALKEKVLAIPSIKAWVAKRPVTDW
As to the kind of experiment: inhibition of CDNB/GSH conjugation, absorbance at […] nm. The class given is biochemical. As to conditions: read-out: % inhibition at 0.5 mM.

In assay [2] the target is T1, BtGST2. In words: GSH/CDNB conjugation, absorbance at […] nm, Michaelis-Menten fit. As to conditions: co-substrate GSH 2.75 mM, CDNB 0.06-3 mM; 0.1 M potassium phosphate pH 6.5, 25 °C. The class given is biochemical.

By inhibition is commonly meant the change of the read-out against control, counted positive when it falls. In general, Km refers to the substrate concentration at which the rate is half of its maximum.

`C=CCN=C=S` [AITC]: the inhibition at 500 µM in assay [1] amounted to 40.9 ± 5.08%.

Turning to `O=[N+]([O-])c1ccc(Cl)c([N+](=O)[O-])c1` [CDNB, 1-Chloro-2,4-dinitrobenzene], the Km in assay [2] was 710 ± 160 µM.

Take `O=c1cc(-c2ccccc2)oc2ccccc12` [Flavone, 2-phenyl chromone]: the inhibition at 500 µM in assay [1] was 67.3 ± 8.65%.

Turning to `OCc1c[nH]c2ccccc12` [I3C], the inhibition at 500 µM in assay [1] is 20.9 ± 7.99%.

As for `CN1CCC[C@H]1c1cccnc1` [Nicotine], the inhibition at 500 µM in assay [1] was found to be 6.64 ± 3.68%.

As for `O=c1c(O)c(-c2ccc(O)c(O)c2)oc2cc(O)cc(O)c12` [Quercetin hydrate], the inhibition at 500 µM in assay [1] stood at 97.6 ± 2.43%.
